Test results: article PMC9851200, “Multiparameter phenotypic screening for endogenous TFEB and TFE3 translocation identifies novel chemical series modulating lysosome function” (Autophagy, 2022)

Experiments:
Assay type in all cases: binding
[1] = biological target: T1, kinases (KINOMEscan panel) (Homo sapiens, UniProt O95835); conditions: LATS1; NEW KINOMEscan
T1 sequence (O95835 1-1130): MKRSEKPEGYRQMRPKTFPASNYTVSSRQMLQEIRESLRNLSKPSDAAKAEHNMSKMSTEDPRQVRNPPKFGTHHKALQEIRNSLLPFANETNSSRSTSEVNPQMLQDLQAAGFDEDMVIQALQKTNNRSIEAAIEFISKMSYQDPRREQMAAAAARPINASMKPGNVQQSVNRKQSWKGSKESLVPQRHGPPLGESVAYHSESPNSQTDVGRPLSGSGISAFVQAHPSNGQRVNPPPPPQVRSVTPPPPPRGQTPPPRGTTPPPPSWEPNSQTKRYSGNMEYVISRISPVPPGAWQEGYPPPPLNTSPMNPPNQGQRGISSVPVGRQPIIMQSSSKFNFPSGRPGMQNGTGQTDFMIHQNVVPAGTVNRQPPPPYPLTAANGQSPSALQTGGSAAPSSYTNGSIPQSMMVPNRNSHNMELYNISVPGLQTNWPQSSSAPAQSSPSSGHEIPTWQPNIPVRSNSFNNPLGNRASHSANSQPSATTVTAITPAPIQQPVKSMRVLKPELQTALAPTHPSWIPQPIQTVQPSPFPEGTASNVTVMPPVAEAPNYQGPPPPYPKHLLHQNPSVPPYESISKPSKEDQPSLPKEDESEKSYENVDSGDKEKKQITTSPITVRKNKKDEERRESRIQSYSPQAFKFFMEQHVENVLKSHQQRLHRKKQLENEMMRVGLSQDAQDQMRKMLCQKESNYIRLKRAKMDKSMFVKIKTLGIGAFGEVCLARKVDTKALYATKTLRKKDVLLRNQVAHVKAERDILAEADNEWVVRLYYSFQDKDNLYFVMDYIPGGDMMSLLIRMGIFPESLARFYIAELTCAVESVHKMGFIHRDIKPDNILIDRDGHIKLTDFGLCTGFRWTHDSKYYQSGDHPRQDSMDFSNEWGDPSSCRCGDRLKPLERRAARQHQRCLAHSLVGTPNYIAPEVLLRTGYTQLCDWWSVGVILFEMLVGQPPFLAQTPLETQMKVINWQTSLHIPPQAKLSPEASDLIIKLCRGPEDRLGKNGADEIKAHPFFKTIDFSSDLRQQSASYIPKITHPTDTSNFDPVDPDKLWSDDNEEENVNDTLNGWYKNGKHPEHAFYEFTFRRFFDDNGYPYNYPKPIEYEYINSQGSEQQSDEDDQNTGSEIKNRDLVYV

[2] = biological target: kinases (KINOMEscan panel) (Homo sapiens, UniProt Q8NI60); conditions: COQ8A; NEW KINOMEscan
[3] = biological target: kinases (KINOMEscan panel) (Homo sapiens, UniProt P36888, R834Q); conditions: kinase FLT3(R834Q); NEW KINOMEscan
[4] = biological target: kinases (KINOMEscan panel) (Homo sapiens, UniProt P17948); conditions: kinase FLT1; NEW KINOMEscan
[5] = biological target: kinases (KINOMEscan panel) (Homo sapiens, UniProt Q9NQU5); conditions: PAK6; NEW KINOMEscan
[6] = biological target: kinases (KINOMEscan panel) (Homo sapiens, UniProt P49840); conditions: GSK3A; NEW KINOMEscan
[7] = biological target: T2, kinases (KINOMEscan panel) (Homo sapiens, UniProt Q16566); conditions: CAMK4; NEW KINOMEscan
T2 sequence (Q16566 1-473): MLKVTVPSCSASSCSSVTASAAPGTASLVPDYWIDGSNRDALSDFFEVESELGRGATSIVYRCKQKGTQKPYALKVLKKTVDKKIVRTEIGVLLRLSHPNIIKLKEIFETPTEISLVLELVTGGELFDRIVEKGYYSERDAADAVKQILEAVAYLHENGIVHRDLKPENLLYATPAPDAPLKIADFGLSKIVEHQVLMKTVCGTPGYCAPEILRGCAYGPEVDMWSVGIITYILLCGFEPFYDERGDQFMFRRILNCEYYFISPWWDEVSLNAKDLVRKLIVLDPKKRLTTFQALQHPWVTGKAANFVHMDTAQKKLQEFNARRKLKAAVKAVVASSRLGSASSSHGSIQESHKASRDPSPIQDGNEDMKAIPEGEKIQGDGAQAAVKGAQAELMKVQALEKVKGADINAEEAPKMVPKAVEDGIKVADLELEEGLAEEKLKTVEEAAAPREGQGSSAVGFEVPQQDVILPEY

[8] = biological target: kinases (KINOMEscan panel) (Homo sapiens, UniProt P42336, E542K); conditions: NEW KINOMEscan
[9] = biological target: kinases (KINOMEscan panel) (Homo sapiens, UniProt P00519, E255K); conditions: NEW KINOMEscan
[10] = biological target: kinases (KINOMEscan panel) (Homo sapiens, UniProt Q9UPE1); conditions: SRPK3; NEW KINOMEscan
[11] = biological target: kinases (KINOMEscan panel) (Homo sapiens, UniProt P09619); conditions: NEW KINOMEscan
[12] = biological target: kinases (KINOMEscan panel) (Homo sapiens, UniProt P06241); conditions: kinase FYN; NEW KINOMEscan
[13] = biological target: kinases (KINOMEscan panel) (Homo sapiens, UniProt O96017); conditions: kinase CHEK2; NEW KINOMEscan

kinases (KINOMEscan panel) (Homo sapiens, UniProt P09619), sequence (P09619 33-1106): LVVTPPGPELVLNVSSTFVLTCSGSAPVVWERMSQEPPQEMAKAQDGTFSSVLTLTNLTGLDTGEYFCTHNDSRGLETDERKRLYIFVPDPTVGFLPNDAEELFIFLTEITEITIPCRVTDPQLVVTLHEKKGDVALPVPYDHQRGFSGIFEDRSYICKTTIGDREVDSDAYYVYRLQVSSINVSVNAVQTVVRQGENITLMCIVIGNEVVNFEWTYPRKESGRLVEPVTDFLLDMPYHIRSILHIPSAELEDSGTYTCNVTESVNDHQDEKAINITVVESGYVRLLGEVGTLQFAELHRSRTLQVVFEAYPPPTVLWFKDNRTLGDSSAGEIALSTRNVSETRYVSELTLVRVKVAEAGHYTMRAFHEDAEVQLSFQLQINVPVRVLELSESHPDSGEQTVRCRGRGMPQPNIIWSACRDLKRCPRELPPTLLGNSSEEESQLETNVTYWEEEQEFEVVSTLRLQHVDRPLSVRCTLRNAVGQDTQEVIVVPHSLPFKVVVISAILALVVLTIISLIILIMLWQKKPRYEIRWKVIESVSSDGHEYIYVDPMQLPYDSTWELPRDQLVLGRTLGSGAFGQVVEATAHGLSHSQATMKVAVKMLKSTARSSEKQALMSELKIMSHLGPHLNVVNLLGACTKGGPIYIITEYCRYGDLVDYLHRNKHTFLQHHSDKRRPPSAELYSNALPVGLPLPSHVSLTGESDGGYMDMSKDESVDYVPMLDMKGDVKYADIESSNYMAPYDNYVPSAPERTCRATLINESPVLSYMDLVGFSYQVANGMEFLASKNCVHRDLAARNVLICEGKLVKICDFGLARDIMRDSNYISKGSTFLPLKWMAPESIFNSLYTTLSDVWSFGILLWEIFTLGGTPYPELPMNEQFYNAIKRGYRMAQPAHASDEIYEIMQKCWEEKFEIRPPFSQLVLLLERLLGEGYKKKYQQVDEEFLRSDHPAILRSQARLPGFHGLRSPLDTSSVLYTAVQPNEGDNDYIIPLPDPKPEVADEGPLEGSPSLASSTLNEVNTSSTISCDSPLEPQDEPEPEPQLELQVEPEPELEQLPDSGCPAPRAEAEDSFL
kinases (KINOMEscan panel) (Homo sapiens, UniProt Q9NQU5), sequence (Q9NQU5 whole entry): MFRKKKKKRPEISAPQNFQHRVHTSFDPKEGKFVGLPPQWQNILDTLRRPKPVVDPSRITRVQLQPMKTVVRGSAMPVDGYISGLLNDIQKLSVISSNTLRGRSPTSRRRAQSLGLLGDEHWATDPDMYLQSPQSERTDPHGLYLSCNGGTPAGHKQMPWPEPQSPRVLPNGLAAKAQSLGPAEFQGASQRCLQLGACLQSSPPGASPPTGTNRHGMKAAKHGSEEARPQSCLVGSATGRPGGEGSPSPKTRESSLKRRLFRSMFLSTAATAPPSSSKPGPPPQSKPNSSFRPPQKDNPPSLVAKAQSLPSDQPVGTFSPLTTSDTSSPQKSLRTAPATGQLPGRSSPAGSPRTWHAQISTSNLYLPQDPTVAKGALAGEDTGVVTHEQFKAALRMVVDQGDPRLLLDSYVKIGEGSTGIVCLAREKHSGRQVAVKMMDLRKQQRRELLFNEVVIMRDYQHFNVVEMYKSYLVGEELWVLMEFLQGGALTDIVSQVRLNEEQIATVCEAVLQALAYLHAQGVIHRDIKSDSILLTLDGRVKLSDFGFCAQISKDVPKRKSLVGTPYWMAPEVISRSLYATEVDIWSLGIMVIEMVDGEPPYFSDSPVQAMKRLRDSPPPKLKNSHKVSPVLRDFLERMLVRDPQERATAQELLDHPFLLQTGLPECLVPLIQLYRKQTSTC
kinases (KINOMEscan panel) (Homo sapiens, UniProt Q8NI60), sequence (Q8NI60 163-647): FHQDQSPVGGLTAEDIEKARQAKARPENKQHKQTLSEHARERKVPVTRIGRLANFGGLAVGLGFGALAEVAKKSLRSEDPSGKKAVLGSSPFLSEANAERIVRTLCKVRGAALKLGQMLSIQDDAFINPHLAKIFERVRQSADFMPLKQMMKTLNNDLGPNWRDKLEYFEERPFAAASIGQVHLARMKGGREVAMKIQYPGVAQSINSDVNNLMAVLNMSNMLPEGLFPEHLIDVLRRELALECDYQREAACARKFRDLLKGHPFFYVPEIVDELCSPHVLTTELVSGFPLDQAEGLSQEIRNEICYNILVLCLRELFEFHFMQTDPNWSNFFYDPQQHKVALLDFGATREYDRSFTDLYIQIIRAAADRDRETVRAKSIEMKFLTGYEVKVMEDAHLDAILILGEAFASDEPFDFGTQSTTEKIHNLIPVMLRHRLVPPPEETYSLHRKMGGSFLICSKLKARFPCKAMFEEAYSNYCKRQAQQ
kinases (KINOMEscan panel) (Homo sapiens, UniProt P00519, E255K), sequence (P00519 whole entry E255K): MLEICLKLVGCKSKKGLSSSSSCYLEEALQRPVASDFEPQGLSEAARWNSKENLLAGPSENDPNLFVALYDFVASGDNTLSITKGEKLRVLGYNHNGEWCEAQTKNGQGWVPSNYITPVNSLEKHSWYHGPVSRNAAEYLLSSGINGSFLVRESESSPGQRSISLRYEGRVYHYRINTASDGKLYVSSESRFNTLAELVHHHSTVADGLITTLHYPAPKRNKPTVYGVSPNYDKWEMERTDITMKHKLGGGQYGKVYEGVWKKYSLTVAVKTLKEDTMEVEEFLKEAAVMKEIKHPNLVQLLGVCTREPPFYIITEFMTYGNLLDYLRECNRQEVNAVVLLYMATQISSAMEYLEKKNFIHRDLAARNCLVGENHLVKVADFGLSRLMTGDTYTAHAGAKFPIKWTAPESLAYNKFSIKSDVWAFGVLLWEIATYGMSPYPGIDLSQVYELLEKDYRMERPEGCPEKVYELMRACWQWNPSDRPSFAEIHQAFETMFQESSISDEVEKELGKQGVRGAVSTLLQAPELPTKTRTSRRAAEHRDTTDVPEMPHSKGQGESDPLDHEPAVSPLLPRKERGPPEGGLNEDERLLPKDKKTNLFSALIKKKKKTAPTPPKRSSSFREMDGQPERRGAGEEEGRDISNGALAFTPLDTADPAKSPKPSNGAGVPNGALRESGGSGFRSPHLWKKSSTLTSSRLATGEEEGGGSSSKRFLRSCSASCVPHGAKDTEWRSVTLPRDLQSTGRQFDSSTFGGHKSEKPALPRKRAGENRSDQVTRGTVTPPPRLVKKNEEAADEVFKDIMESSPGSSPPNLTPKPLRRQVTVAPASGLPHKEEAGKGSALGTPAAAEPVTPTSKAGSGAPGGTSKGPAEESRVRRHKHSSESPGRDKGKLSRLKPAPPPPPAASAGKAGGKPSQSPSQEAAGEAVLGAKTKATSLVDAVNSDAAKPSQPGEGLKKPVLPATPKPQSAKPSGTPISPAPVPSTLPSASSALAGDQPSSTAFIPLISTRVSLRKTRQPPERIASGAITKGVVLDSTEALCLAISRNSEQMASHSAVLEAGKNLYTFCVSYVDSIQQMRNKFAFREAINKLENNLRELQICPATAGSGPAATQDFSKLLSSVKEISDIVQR
kinases (KINOMEscan panel) (Homo sapiens, UniProt P17948), sequence (P17948 27-1338): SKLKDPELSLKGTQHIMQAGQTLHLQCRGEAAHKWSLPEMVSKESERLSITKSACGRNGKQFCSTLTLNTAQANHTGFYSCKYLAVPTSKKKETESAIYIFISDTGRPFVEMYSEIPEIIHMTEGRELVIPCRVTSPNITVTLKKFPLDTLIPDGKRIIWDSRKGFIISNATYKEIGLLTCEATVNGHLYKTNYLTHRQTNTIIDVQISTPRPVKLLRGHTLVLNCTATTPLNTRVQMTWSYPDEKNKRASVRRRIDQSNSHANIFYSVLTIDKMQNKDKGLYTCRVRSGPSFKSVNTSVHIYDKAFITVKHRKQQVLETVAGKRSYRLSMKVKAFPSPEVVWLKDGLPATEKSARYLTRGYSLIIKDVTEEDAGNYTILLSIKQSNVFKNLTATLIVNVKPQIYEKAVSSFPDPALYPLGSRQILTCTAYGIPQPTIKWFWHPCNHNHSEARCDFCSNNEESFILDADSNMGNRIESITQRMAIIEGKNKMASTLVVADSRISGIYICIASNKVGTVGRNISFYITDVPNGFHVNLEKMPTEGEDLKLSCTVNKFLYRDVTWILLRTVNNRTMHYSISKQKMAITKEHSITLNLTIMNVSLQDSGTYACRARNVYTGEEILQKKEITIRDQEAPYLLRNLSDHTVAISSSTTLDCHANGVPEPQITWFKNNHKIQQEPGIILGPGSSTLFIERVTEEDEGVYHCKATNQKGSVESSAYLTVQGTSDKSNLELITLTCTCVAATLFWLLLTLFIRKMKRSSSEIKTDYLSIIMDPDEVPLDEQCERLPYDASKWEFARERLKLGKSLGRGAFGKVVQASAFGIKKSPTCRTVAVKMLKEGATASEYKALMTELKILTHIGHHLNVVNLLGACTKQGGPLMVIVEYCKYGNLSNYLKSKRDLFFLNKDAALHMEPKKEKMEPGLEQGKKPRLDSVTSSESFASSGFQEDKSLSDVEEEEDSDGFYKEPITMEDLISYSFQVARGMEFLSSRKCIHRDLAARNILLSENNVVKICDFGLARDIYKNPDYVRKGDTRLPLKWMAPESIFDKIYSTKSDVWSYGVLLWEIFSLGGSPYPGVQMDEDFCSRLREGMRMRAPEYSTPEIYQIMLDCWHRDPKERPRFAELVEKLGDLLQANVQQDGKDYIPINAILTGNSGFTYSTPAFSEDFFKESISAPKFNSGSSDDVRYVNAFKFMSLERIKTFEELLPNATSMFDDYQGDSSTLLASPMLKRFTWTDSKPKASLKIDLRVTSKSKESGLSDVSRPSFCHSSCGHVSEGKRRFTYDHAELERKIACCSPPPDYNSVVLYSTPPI

SMILES | KINOMEscan LATS1 [1] | KINOMEscan COQ8A [2] | KINOMEscan FLT3(R834Q) [3] | KINOMEscan FLT1 [4] | KINOMEscan PAK6 [5] | KINOMEscan GSK3A [6] | KINOMEscan CAMK4 [7] | KINOMEscan PIK3CA(E542K) [8] | KINOMEscan ABL1(E255K)-phosphorylated [9] | KINOMEscan SRPK3 [10] | KINOMEscan PDGFRB [11] | KINOMEscan FYN [12] | KINOMEscan CHEK2 [13]
Cc1cccc(-c2nc(Nc3ccc4nn(C)cc4c3)c3ccccc3n2)n1 [NK167] | 0 | 5 | 0 | 4 | 0 | 0 | 2 | 15 | 15 | 0 | 19 | 0 | 0
Cc1cccc(-c2nc(N(C)c3ccc4ncsc4c3)c3ccccc3n2)n1 [NK-161] | 5 | 1 | 2 | 12 | 0 | 0 | 7 | 19 | 22 | 1 | 21 | 0 | 0
